Details: Liquid, Vibrating tube method

CCO [ethanol]
mass density [kg/m3]
Details	100 kPa	5000 kPa	10000 kPa	15000 kPa	20000 kPa	25000 kPa	30000 kPa	35000 kPa
293.15 K	788.94	793.35	797.51	801.44	805.18	808.74	812.17	815.49
303.15 K	780.83	785.54	789.89	793.92	797.7	801.28	804.72	808.06
313.15 K	772.04	776.85	781.35	785.59	789.62	793.47	797.2	800.84

CCCO [propan-1-ol]
mass density [kg/m3]
Details	100 kPa	5000 kPa	10000 kPa	15000 kPa	20000 kPa	25000 kPa	30000 kPa	35000 kPa
293.15 K	803.17	807.25	811.02	814.54	817.87	821.05	824.15	827.21
303.15 K	795.52	799.83	803.8	807.49	810.95	814.23	817.38	820.48
313.15 K	787.3	791.61	795.67	799.52	803.19	806.72	810.15	813.5

CCCCO [butan-1-ol]
mass density [kg/m3]
Details	100 kPa	5000 kPa	10000 kPa	15000 kPa	20000 kPa	25000 kPa	30000 kPa	35000 kPa
293.15 K	809.28	813.04	816.54	819.83	822.97	826	828.99	831.99
303.15 K	801.9	806	809.77	813.26	816.52	819.61	822.58	825.48
313.15 K	794.32	798.42	802.22	805.8	809.2	812.49	815.73	818.97

CCCCCO [pentan-1-ol]
mass density [kg/m3]
Details	100 kPa	5000 kPa	10000 kPa	15000 kPa	20000 kPa	25000 kPa	30000 kPa	35000 kPa
293.15 K	815.25	818.83	822.19	825.37	828.41	831.36	834.24	837.11
303.15 K	808.05	811.93	815.5	818.82	821.92	824.88	827.74	830.55
313.15 K	800.67	804.61	808.28	811.75	815.06	818.26	821.41	824.56

CO [methanol]
mass density [kg/m3]
Details	100 kPa	5000 kPa	10000 kPa	15000 kPa	20000 kPa	25000 kPa	30000 kPa	35000 kPa
293.15 K	791.15	795.92	800.41	804.64	808.67	812.52	816.25	819.89
303.15 K	781.84	786.9	791.61	796.01	800.14	804.05	807.78	811.37
313.15 K	772.35	777.48	782.37	786.99	791.38	795.59	799.69	803.73

C=C(C)C(=O)OCCN(C)C [2-(dimethylamino)ethyl methylpropenoate]
mass density [kg/m3]
Details	100 kPa	5000 kPa	10000 kPa	15000 kPa	20000 kPa	25000 kPa	30000 kPa	35000 kPa
293.15 K	933.13	936.87	940.43	943.83	947.11	950.3	953.43	956.52
303.15 K	923.03	926.88	930.61	934.24	937.79	941.28	944.74	948.19
313.15 K	914.01	917.99	921.97	925.87	929.71	933.48	937.2	940.87

From the NIST ThermoML archive (doi:10.1021/acs.jced.8b00975)
